What was measured:
[1] = Partition coefficient (logP); type: physicochemical; conditions: octanol/water
[2] = system: Tenebrio molitor; assay: Juvenile hormone mimetic activity in Tenebrio molitor (yellow mealworm); type: functional; set-up: unit not given here

| Structure (SMILES) | logP ([1]; read-out: logP) | pI50 [2] | logP [1] |
| --- | --- | --- | --- |
| CCOC(=O)/C=C(C)/C=C/CC(C)CCCC(C)(C)C (stereo not drawn) | 7.15 | 2.5 | – |
| COC(C)(C)CCCC(C)C/C=C/C(C)=C/C(=O)NC1CC1 (stereo not drawn) | – | 3.74 | 4.04 |
| CSC(C)(C)CCCC(C)C/C=C/C(C)=C/C(=O)OC(C)C (stereo not drawn) | 6.77 | 3.77 | – |
| CCOC(=O)/C=C(C)/C=C/CC(C)CCCC(C)(C)OC(C)=O (stereo not drawn) | 5.57 | 2.28 | – |
| CCCOC(=O)/C=C(C)/C=C/CC(C)CCCC(C)C (stereo not drawn) | 7.28 | 2.71 | – |
| COC(C)(C)CCCC(C)C/C=C/C(C)=C/C(=O)O (stereo not drawn) | 4.79 | – | – |
| CCOC(=O)/C=C(C)/C=C/CC(C)CCC(OC)C(C)C (stereo not drawn) | 5.54 | 2.54 | – |
| C#CCSC(=O)/C=C(C)/C=C/CC(C)CCCC(C)C (stereo not drawn) | 5.07 | 3.47 | – |
| COC(C)(C)CCCC(C)C/C=C/C(C)=C/C(=O)OC(C)C (stereo not drawn) | 5.95 | – | – |
| CCNC(=O)OC(C)(C)CCCC(C)C/C=C/C(C)=C/C(=O)OC(C)C (stereo not drawn) | 6.06 | 1.79 | – |
| CCCC(=O)/C=C(C)/C=C/CC(C)CCCC(C)C (stereo not drawn) | 6.81 | 4.7 | – |
| CCSC(=O)/C=C(C)/C=C/CC(C)CCCC(C)(C)C (stereo not drawn) | 8.39 | – | – |
| COC(CCC(C)C/C=C/C(C)=C/C(=O)OC(C)C)C(C)C (stereo not drawn) | 5.95 | 3.82 | – |
| CCOC(=O)/C=C(C)/C=C/CC(C)CCCC(C)(C)SC (stereo not drawn) | 6.36 | 2.24 | – |
| CC(/C=C/CC(C)CCCC(C)C)=C\C(=O)NCC(C)C (stereo not drawn) | 6.19 | 0.62 | – |
| CC(/C=C/CC(C)CCCC(C)(C)C)=C\C(=O)OC(C)C (stereo not drawn) | 7.56 | – | – |
| C=CCSC(=O)/C=C(C)/C=C/CC(C)CCCC(C)(C)OC (stereo not drawn) | 6.77 | 2.06 | – |
| C#CCSC(=O)/C=C(C)/C=C/CC(C)CCCC(C)(C)OC (stereo not drawn) | 5.9 | 2.15 | – |
| COC(C)(C)CCCC(C)C/C=C/C(C)=C/C(=O)OCCC(C)C (stereo not drawn) | 7.03 | 0.81 | – |
| COC(C)(C)CCCC(C)C/C=C/C(C)=C/C(=O)OC(C)(C)C (stereo not drawn) | 6.36 | 3.81 | – |
| CCNC(=O)/C=C(C)/C=C/CC(C)CCCC(C)C (stereo not drawn) | 5.24 | 4.76 | – |
| CCOC(=O)/C=C(C)/C=C/CC(C)CCCC(C)CC (stereo not drawn) | 7.81 | 3.47 | – |
| C=CCOC(=O)/C=C(C)/C=C/CC(C)CCCC(C)(C)OC (stereo not drawn) | 5.53 | 1.41 | – |
| CSC(=O)/C=C(C)/C=C/CC(C)CCCC(C)C (stereo not drawn) | 7.44 | 3.25 | – |
| C=CCOC(=O)/C=C(C)/C=C/CC(C)CCCC(C)C (stereo not drawn) | 6.73 | 3.51 | – |
| CCSC(=O)/C=C(C)/C=C/CC(C)CCCC(C)(C)OC (stereo not drawn) | 6.78 | 3.49 | – |

| Structure (SMILES) | logP ([1]; read-out: logP) | pI50 [2] | logP [1] |
| --- | --- | --- | --- |
| CCC(C)OC(=O)/C=C(C)/C=C/CC(C)CCCC(C)(C)OC (stereo not drawn) | 6.49 | 4.67 | – |
| CC(/C=C/CC(C)CCCC(C)C)=C\C(=O)OCC(C)C (stereo not drawn) | 7.69 | 3.8 | – |
| CCC(=O)/C=C(C)/C=C/CC(C)CCCC(C)(C)OC (stereo not drawn) | 5.07 | 5.78 | – |
| CCOC(=O)/C=C(C)/C=C/CC(C)CCCC(C)(C)Cl (stereo not drawn) | 6.44 | 3.5 | – |
| CCCCOC(=O)/C=C(C)/C=C/CC(C)CCCC(C)(C)OC (stereo not drawn) | 6.62 | 0.93 | – |
| C=C(C)CCCC(C)C/C=C/C(C)=C/C(=O)OCC (stereo not drawn) | 6.19 | 2.49 | – |
| C#CCOC(=O)/C=C(C)/C=C/CC(C)CCCC(C)(C)OC (stereo not drawn) | 4.66 | 1.34 | – |
| C=CCSC(=O)/C=C(C)/C=C/CC(C)CCCC(C)C (stereo not drawn) | 7.97 | 3.26 | – |
| CC(/C=C/CC(C)CCCC(C)C)=C\C(=O)Oc1ccccc1 (stereo not drawn) | 7.67 | 1.5 | – |
| CCNC(=O)/C=C(C)/C=C/CC(C)CCCC(C)(C)C (stereo not drawn) | 5.65 | 4.45 | – |
| CC(/C=C/CC(C)CCCC(C)(C)Cl)=C\C(=O)OC(C)C (stereo not drawn) | 6.85 | 3.75 | – |
| COC(C)(C)CCCC(C)C/C=C/C(C)=C/C(=O)SC (stereo not drawn) | 6.24 | 3.47 | – |
| CCC(C)OC(=O)/C=C(C)/C=C/CC(C)CCCC(C)C (stereo not drawn) | 7.69 | 3.87 | – |
| COC(C)(C)CCCC(C)C/C=C/C(C)=C/C(=O)N(C)C (stereo not drawn) | 3.74 | 3.8 | – |
| CC(/C=C/CC(C)CCCC(C)C)=C\C(=O)SC(C)C (stereo not drawn) | 8.39 | 4.22 | – |
| CC(/C=C/CC(C)CCCC(C)(C)O)=C\C(=O)OC(C)C (stereo not drawn) | 5.06 | 4.33 | – |
| CC(/C=C/CC(C)CCCC(C)(C)OC=O)=C\C(=O)OC(C)C (stereo not drawn) | 5.4 | 4.43 | – |
| CCSC(=O)/C=C(C)/C=C/CC(C)CCCC(C)C (stereo not drawn) | 7.98 | 4.05 | – |
| COC(C)(C)CCCC(C)C/C=C/C(C)=C/C(=O)OC1CCC1 (stereo not drawn) | 6.44 | 2.79 | – |
| COC(C)(C)CCCC(C)C/C=C/C(C)=C/C(=O)OC1CC1 (stereo not drawn) | 5.71 | 2.89 | – |
| C=CC(C)OC(=O)/C=C(C)/C=C/CC(C)CCCC(C)(C)OC (stereo not drawn) | 5.94 | 4.39 | – |
| CCN(CC)C(=O)/C=C(C)/C=C/CC(C)CCCC(C)(C)OC (stereo not drawn) | 4.82 | 5.51 | – |
| CC(/C=C/CC(C)CCCC(C)C)=C\C(=O)NC(C)C (stereo not drawn) | 5.65 | 4.33 | – |
| COC(C)(C)CCCC(C)C/C=C/C(C)=C/C(N)=O (stereo not drawn) | 3.52 | 0.05 | – |
| CCOC(C)(C)CCCC(C)C/C=C/C(C)=C/C(=O)OC(C)C (stereo not drawn) | 6.49 | 4.51 | – |
| CCCOC(=O)/C=C(C)/C=C/CC(C)CCCC(C)(C)OC (stereo not drawn) | 6.08 | 1.65 | – |

| Structure (SMILES) | logP ([1]; read-out: logP) | pI50 [2] | logP [1] |
| --- | --- | --- | --- |
| C=CCNC(=O)/C=C(C)/C=C/CC(C)CCCC(C)C (stereo not drawn) | 5.23 | 4.33 | – |
| C=C(C)CCCC(C)C/C=C/C(C)=C/C(=O)OC(C)C (stereo not drawn) | 6.6 | 4.1 | – |
| CC(C)=CCCC(C)C/C=C/C(C)=C/C(=O)OC(C)C (stereo not drawn) | 6.6 | 3.67 | – |
| CC(=O)OC(C)(C)CCCC(C)C/C=C/C(C)=C/C(=O)OC(C)C (stereo not drawn) | 5.98 | 3.81 | – |
| COC(C)(C)CCCC(C)C/C=C/C(C)=C/C(=O)NC(C)C (stereo not drawn) | 4.45 | 4.21 | – |
| COC(C)(C)CCCC(C)C/C=C/C(C)=C/C(=O)CC(C)C (stereo not drawn) | 6.02 | 3.49 | – |
| CC(/C=C/CC(C)CCCC(C)(C)OC(C)C)=C\C(=O)OC(C)C (stereo not drawn) | 6.9 | 3.01 | – |
| CCN(CC)C(=O)/C=C(C)/C=C/CC(C)CCC1OC1(C)C (stereo not drawn) | 4.04 | 3.85 | – |
| CCN(CC)C(=O)/C=C(C)/C=C/CC(C)CCC=C(C)C (stereo not drawn) | 5.47 | 1.7 | – |
| CCOC(=O)/C=C(C)/C=C/CC(C)CCC=C(C)C (stereo not drawn) | 6.19 | 2.38 | – |
| CCOC(=O)/C=C(C)/C=C/CC(C)CCC(OC)C(C)(C)OC (stereo not drawn) | 4.34 | 1.31 | – |
| CCN(CC)C(=O)/C=C(C)/C=C/CC(C)CCCC(C)C (stereo not drawn) | 6.02 | 4.63 | – |
| COC(C)(C)C(O)CCC(C)C/C=C/C(C)=C/C(=O)OC(C)C (stereo not drawn) | 3.86 | 2.61 | – |
| COC(=O)/C=C(C)/C=C/CC(C)CCCC(C)C (stereo not drawn) | 6.2 | 2.2 | – |
| CCSC(=O)/C=C(C)/C=C/CC(C)CCCC(C)(C)OC(C)=O (stereo not drawn) | 6.81 | 2.83 | – |
| COC(=O)/C=C(C)/C=C/CC(C)CCCC(C)(C)OC (stereo not drawn) | 5 | 0.89 | – |
| CC(/C=C/CC(C)CCCC(C)C)=C\C(=O)c1ccccc1 (stereo not drawn) | 7.26 | 3.52 | – |
| CCC(C)C(=O)/C=C(C)/C=C/CC(C)CCCC(C)(C)OC (stereo not drawn) | 6.02 | 3.54 | – |
| CC(/C=C/CC(C)CCCC(C)C)=C\C(=O)N(C)C (stereo not drawn) | 4.94 | 3.7 | – |
| CCOC(=O)/C=C(C)/C=C/CC(C)CCCC(C)(C)OCC (stereo not drawn) | 6.08 | 2.77 | – |
| COC(C)(C)CCCC(C)C/C=C/C(C)=C/C(=O)OC1CCCC1 (stereo not drawn) | 7.01 | 4.32 | – |
| CC(/C=C/CC(C)CCCC(C)C)=C\C(=O)OC(C)C (stereo not drawn) | 7.15 | 4.03 | – |
| CC#CCOC(=O)/C=C(C)/C=C/CC(C)CCCC(C)C (stereo not drawn) | 6.4 | 2.12 | – |
| CCOC(=O)/C=C(C)/C=C/CC(C)CCCC(C)C (stereo not drawn) [HYDROPRENE] | 6.74 | – | – |
| C#CCOC(=O)/C=C(C)/C=C/CC(C)CCCC(C)C (stereo not drawn) [KINOPRENE] | 5.86 | – | – |
